According to patent US11926623B2, “Heterocycle derivatives as pesticides” (Bayer Aktiengesellschaft, priority 2018, dated 2024):
Like-named read-outs stand apart in the source and are kept apart here.

How the values were obtained:
Myzus persicae [1] = test: Myzus persicae oral test; type: in vivo; settings: 120 h, mixed population of green peach aphids, after 5 days, read-out: efficacy
Experimental: Myzus persicae—Oral Test [table] To produce a suitable preparation of active compound, 1 part by weight of active compound is dissolved using the specified parts by weight of solvent and made up with water until the desired concentration is attained. 50 μl of the active ingredient formulation are transferred into microtitre plates and made up to a final volume of 200 μl with 150 μl of IPL41 insect medium (33%+15% sugar). Subsequently, the plates are sealed with parafilm, which a mixed population of green peach aphids (Myzus persicae) within a second microtitre plate is able to puncture and imbibe the solution through. After 5 days, the efficacy in % is determined. 100% means that all the aphids have been killed; 0% means that no aphids have been killed.

Myzus persicae [2] = test: Myzus persicae spray test; type: in vivo; settings: foliar, 120 h, sprayed Chinese cabbage leaf discs, all stages of the green peach aphid, after 5 days, read-out: efficacy
Experimental: Myzus persicae—Spray Test [table] To produce a suitable active compound preparation, 1 part by weight of active compound is dissolved using the stated parts by weight of solvent and made up with water containing an emulsifier concentration of 1000 ppm until the desired concentration is attained. To produce further test concentrations, the formulation is diluted with emulsifier-containing water. Discs of Chinese cabbage leaves (Brassica pekinensis) infested by all stages of the green peach aphid (Myzus persicae) are sprayed with an active compound formulation of the desired concentration. After 5 days, the efficacy in % is determined. 100% means that all the aphids have been killed; 0% means that no aphids have been killed.

[3] = log P by HPLC on reversed-phase column (C18), EEC Directive 79/831 Annex V.A8; type: physicochemical
Experimental: The log P values were determined according to EEC Directive 79/831 Annex V.A8 by HPLC (high-performance liquid chromatography) on a reversed-phase column (C18) using the following methods: ^[a] […] Calibration was carried out using a homologous series of straight-chain alkan-2-ones (having 3 to 16 carbon atoms) with known log P values. The values between successive alkanones are determined by linear regression.

Ctenocephalides felis = Ctenocephalides felis oral test; type: in vivo; settings: 48 h, 100 ppm in citrated cattle blood, unfed adult cat fleas, after 2 days, read-out: efficacy (kill in %)
Experimental: Ctenocephalides felis—Oral Test [table] To produce a suitable active compound preparation, 10 mg of active compound are mixed with 0.5 ml of dimethyl sulfoxide. Dilution with citrated cattle blood gives the desired concentration. About 20 unfed adult cat fleas (Ctenocephalides felis) are placed into a chamber which is closed at the top and bottom with gauze. A metal cylinder whose bottom end is closed with parafilm is placed onto the chamber. The cylinder contains the blood/active compound formulation, which can be imbibed by the fleas through the parafilm membrane. After 2 days, the kill in % is determined. 100% means that all of the fleas have been killed; 0% means that none of the fleas have been killed.

Spodoptera frugiperda = Spodoptera frugiperda spray test; type: in vivo; settings: foliar, 168 h, sprayed maize leaf discs, fall armyworm caterpillars, after 7 days, read-out: efficacy
Experimental: Spodoptera frugiperda—Spray Test [table] To produce a suitable active compound preparation, 1 part by weight of active compound is dissolved using the stated parts by weight of solvent and made up with water containing an emulsifier concentration of 1000 ppm until the desired concentration is attained. To produce further test concentrations, the formulation is diluted with emulsifier-containing water. Leaf discs of maize (Zea mays) are sprayed with an active compound formulation of the desired concentration and, after drying, populated with caterpillars of the fall armyworm (Spodoptera frugiperda). After 7 days, the efficacy in % is determined. 100% means that all the caterpillars have been killed; 0% means that no caterpillar has been killed.

Phaedon cochleariae = Phaedon cochleariae spray test; type: in vivo; settings: 100 g/ha, sprayed Chinese cabbage leaf discs, mustard beetle larvae, after 7 days
Experimental: Phaedon cochleariae—Spray Test
(§1) To produce a suitable active compound preparation, 1 part by weight of active compound is dissolved using the stated parts by weight of solvent and made up with water containing an emulsifier concentration of 1000 ppm until the desired concentration is attained. To produce further test concentrations, the formulation is diluted with emulsifier-containing water.
Discs of Chinese cabbage leaves (Brassica pekinensis) are sprayed with an active compound formulation of the desired concentration and, after drying, populated with larvae of the mustard beetle (Phaedon cochleariae).
After 7 days, the efficacy in % is determined. 100% means that all the beetle larvae have been killed; 0% means that no beetle larvae have been killed.

Tetranychus urticae = Tetranychus urticae spray test, OP-resistant; type: in vivo; settings: 20 g/ha, sprayed bean leaf discs, all stages of the greenhouse red spider mite, after 6 days
Experimental: Tetranychus urticae—Spray Test, OP-Resistant
as §1
Discs of bean leaves (Phaseolus vulgaris) infested with all stages of the greenhouse red spider mite (Tetranychus urticae) are sprayed with an active compound formulation of the desired concentration.
After 6 days, the efficacy in % is determined. 100% means that all the spider mites have been killed; 0% means that no spider mites have been killed.

Boophilus microplus = Boophilus microplus injection test; type: in vivo; settings: 20 μg/animal, injection into engorged adult female cattle ticks, assessed after 7 days by laying of fertile eggs
Experimental: Boophilus microplus—Injection Test [table] To produce a suitable active compound preparation, 10 mg of active compound are mixed with 0.5 ml of solvent and the concentrate is diluted to the desired concentration with solvent. 1 μl of the active compound solution is injected into the abdomen of 5 engorged adult female cattle ticks (Boophilus microplus). The animals are transferred into dishes and kept in a climate-controlled room. Efficacy is assessed after 7 days by laying of fertile eggs. Eggs which are not visibly fertile are stored in a climate-controlled cabinet until the larvae hatch after about 42 days. An efficacy of 100% means that none of the ticks has laid any fertile eggs; 0% means that all the eggs are fertile.

Diabrotica balteata = Diabrotica balteata spray test; type: in vivo; settings: 168 h, 160 μg/well, sprayed germinated wheat grains, beetle larvae, after 7 days, read-out: efficacy
Experimental: Diabrotica balteata—Spray Test [table] To produce a suitable active compound preparation, 1 part by weight of active compound is dissolved using the stated parts by weight of solvent and made up with water containing an emulsifier concentration of 1000 ppm until the desired concentration is attained. To produce further test concentrations, the formulation is diluted with emulsifier-containing water. Pre-swollen wheat grains (Triticum aestivum) are incubated in a multiwell plate filled with agar and a little water for one day (5 seed grains per well). The germinated wheat grains are sprayed with an active compound preparation of the desired concentration. Subsequently, each cavity is infected with 10-20 beetle larvae of Diabrotica balteata. After 7 days, the efficacy in % is determined. 100% means that all wheat plants have grown as in the untreated, uninfected control; 0% means that no wheat plant has grown.

[4] = LC-UV in the acidic range, formic acid in water / acetonitrile, read-out: log P[acidic]
[5] = LC-UV in the neutral range, ammonium carbonate in water / acetonitrile, read-out: log P[neutral]

CCS(=O)(=O)c1c(-c2nc3cc(C(F)(F)F)cnc3n2C)nc(C2CC(C3CC3)=NO2)n1C (stereo not shown) [Example I-1, 2-[2-(3-Cyclopropyl-4,5-dihydro-1,2-oxazol-5-yl)-5-(ethylsulfonyl)-1-methyl-1H-imidazol-4-yl]-3-methyl-6-(trifluoromethyl)-3H-imidazo[4,5-b]pyridine]
pest or weed control at 4 ppm (Myzus persicae [1]): 100%
pest or weed control at 100 g/ha (Myzus persicae [2]): 100%
chromatographic logP [3, 4]: 2.73
chromatographic logP [3, 5]: 2.72
pest or weed control at 100 ppm (Ctenocephalides felis): 100%

CCS(=O)(=O)c1c(-c2nc3cc(C(F)(F)F)cnc3n2C)nc(-c2ccc(C3(C#N)CC3)cc2)n1C [Example I-5, 1-(4-{5-(Ethylsulfonyl)-1-methyl-4-[3-methyl-6-(trifluoromethyl)-3H-imidazo[4,5-b]pyridin-2-yl]-1H-imidazol-2-yl}phenyl)cyclopropanecarbonitrile]
pest or weed control at 4 ppm (Myzus persicae [1]): 100%
pest or weed control at 100 g/ha (Spodoptera frugiperda): 100%
pest or weed control at 100 g/ha (Myzus persicae [2]): 100%
chromatographic logP [3, 4]: 3.14
chromatographic logP [3, 5]: 3.07
pest or weed control at 100 ppm (Ctenocephalides felis): 100%
efficacy (Phaedon cochleariae): 100%

CCS(=O)(=O)c1c(-c2nc3cc(C(F)(F)F)cnc3n2C)nc(-c2ccc(C3CC3)nc2)n1C [Example I-14]
pest or weed control at 4 ppm (Myzus persicae [1]): 100%
pest or weed control at 100 g/ha (Spodoptera frugiperda): 100%
pest or weed control at 100 g/ha (Myzus persicae [2]): 90%
pest or weed control at 100 ppm (Ctenocephalides felis): 90%
efficacy (Phaedon cochleariae): 100%

CCS(=O)(=O)c1c(-c2nc3cc(C(F)(F)F)cnc3n2C)nc(-c2ccc(C3CC3)s2)n1C [Example I-8]
pest or weed control at 4 ppm (Myzus persicae [1]): 100%
pest or weed control at 100 g/ha (Spodoptera frugiperda): 100%
pest or weed control at 100 g/ha (Myzus persicae [2]): 100%
pest or weed control at 100 ppm (Ctenocephalides felis): 80%

CCS(=O)(=O)c1c(-c2nc3cc(C(F)(F)F)cnc3n2C)nc(-n2cc(Br)c(C3CC3)n2)n1C [Example I-10]
pest or weed control at 4 ppm (Myzus persicae [1]): 100%
efficacy (Tetranychus urticae): 90%
pest or weed control at 100 g/ha (Spodoptera frugiperda): 100%
pest or weed control at 100 g/ha (Myzus persicae [2]): 90%
efficacy (Boophilus microplus): 90%
pest or weed control at 100 ppm (Ctenocephalides felis): 90%
efficacy (Phaedon cochleariae): 100%

CCS(=O)(=O)c1c(-c2nc3cc(C(F)(F)F)cnc3n2C)nc(-c2cnn(C3CC3)c2)n1C [Example I-6]
pest or weed control at 4 ppm (Myzus persicae [1]): 100%
pest or weed control at 100 g/ha (Spodoptera frugiperda): 100%
pest or weed control at 100 g/ha (Myzus persicae [2]): 100%
efficacy (Boophilus microplus): 95%
pest or weed control at 100 ppm (Ctenocephalides felis): 100%
efficacy (Phaedon cochleariae): 100%

CCS(=O)(=O)c1c(-c2nc3cc(C(F)(F)F)cnc3n2C)nc(-c2ccc(-c3ccccc3)s2)n1C [Example I-11]
pest or weed control at 4 ppm (Myzus persicae [1]): 100%
pest or weed control at 100 g/ha (Spodoptera frugiperda): 100%
pest or weed control at 100 g/ha (Myzus persicae [2]): 90%
pest or weed control at 100 ppm (Ctenocephalides felis): 90%

CCS(=O)(=O)c1c(-c2nc3cc(C(F)(F)F)cnc3n2C)nc(-n2ccc(C3CC3)n2)n1C [Example I-9, 2-[2-(3-Cyclopropyl-1H-pyrazol-1-yl)-5-(ethylsulfonyl)-1-methyl-1H-imidazol-4-yl]-3-methyl-6-(trifluoromethyl)-3H-imidazo[4,5-b]pyridine]
pest or weed control at 4 ppm (Myzus persicae [1]): 100%
pest or weed control at 100 g/ha (Spodoptera frugiperda): 100%
pest or weed control at 100 g/ha (Myzus persicae [2]): 100%
chromatographic logP [3, 4]: 3.46
chromatographic logP [3, 5]: 3.36
pest or weed control at 100 ppm (Ctenocephalides felis): 90%
efficacy (Phaedon cochleariae): 100%

CCS(=O)(=O)c1c(-c2nc3cc(C(F)(F)C(F)(F)F)cnc3n2C)nc(-n2ccc(C3CC3)n2)n1C [Example I-21]
pest or weed control at 4 ppm (Myzus persicae [1]): 100%
pest or weed control at 160 µg/disc, 160 µg/well (Diabrotica balteata): 100%
pest or weed control at 100 g/ha (Spodoptera frugiperda): 100%
pest or weed control at 100 g/ha (Myzus persicae [2]): 90%

CCS(=O)(=O)c1c(-c2nc3cc(C(F)(F)F)cnc3n2C)nc(-c2ccnn2C2CC2)n1C [Example I-7]
pest or weed control at 4 ppm (Myzus persicae [1]): 100%
pest or weed control at 100 g/ha (Myzus persicae [2]): 90%
efficacy (Phaedon cochleariae): 100%
